# Source: publication PMC3564010, “Exposure to Acetylcholinesterase Inhibitors Alters the Physiology and Motor Function of Honeybees” (Frontiers in Physiology, 2013)
# Test system: T1, AChE (honeybee gut lysate)
# T1 construct: gene AChE-1; total AChE activity
# Assay: Ellman assay, […] nm, Hill fit
# Format: biochemical, Apis mellifera mellifera
# Settings: gut homogenate; […] min incubation; […] acetylthiocholine iodide, […] DTNB; PBS
structure (smiles),measurement,value
COc1cc2c(cc1OC)C(=O)C(CC1CCN(Cc3ccccc3)CC1)C2 (stereo not shown) [Donepezil],IC50,115 ± 5.86 nM
